Laboratory results: patent US12116358B2, “Substituted indoles and methods of use thereof” (EPIZYME, INC., priority 2018, dated 2024)
pIC50: −log10 of the molar value. Like-named read-outs stand apart in the source and are kept apart here.

Experiments:
[1] = test system: H3K36me3 in A549 cells; assay: In-Cell Western (ICW) assay of SETD2 inhibitors (A549 assay); assay type: cell-based, human; details: A549 cells, read-out: SETD2 A549
Description: In-Cell Western (ICW) Assay of SETD2 Inhibitors (A549 Assay)
Representative Compounds of the Disclosure were tested in the A549 assay according the following protocol.
1. Reagents and Consumables:
Prepare plates with compounds. Seed A549 cells to the plates with compounds, 4,000 cells/well, 50 μl/well. Put the plates at room temperature on a non-vibrating surface for 20 minutes before placing in the incubator. Incubate the plate at 37° C. incubator with CO2 for 3 days. Remove plate from incubator and bring to room temperature. Blot media out of the plate and add 50 μL of ice cold 100% methanol. Incubate 30 minutes at room temperature. Remove methanol by aspiration. Wash 3× with PBST. Add 50 μL of Blocking Buffer+0.1% Tween 20. Incubate 1 hour. Remove Blocking Buffer, wash 3× with PBST. Add 20 μL of H3K36me3 (1:1000 dilution). […] Incubate overnight at 4° C. Wash plate 5× with PBS-T. Add 20 μL of DRAQ5 (1:1000) and IRDye 800CW Goat anti-Rabbit IgG (1:500). Incubate for 1 hour in the dark. Wash plate 5× with PBS-T. Wash plate 3× with water. Dry by blotting on paper towel, then centrifuge plate upside down on a thin layer of paper towels for 1 minute at 1000 rpm to remove excess reagent. Leave plate uncovered for ˜10 minutes out of direct light before reading. Read on Licor instrument.
4. Licor Instrument Settings:
Preset: Plate; Resolution: 84 μm; Quality: low; Focus offset: 4.0; 700 channel intensity: 2; and 800 channel intensity: 3.

[2] = biological target: T1, SETD2(1434-1711) (Homo sapiens, UniProt Q9BYW2); assay: SETD2 (1434-1711) assay; assay type: biochemical; details: read-out: SETD2 (1434-1711)
T1 construct: SETD2 (1434-1711) Assay; catalogue N/A
T1 sequence (Q9BYW2 1434-1711): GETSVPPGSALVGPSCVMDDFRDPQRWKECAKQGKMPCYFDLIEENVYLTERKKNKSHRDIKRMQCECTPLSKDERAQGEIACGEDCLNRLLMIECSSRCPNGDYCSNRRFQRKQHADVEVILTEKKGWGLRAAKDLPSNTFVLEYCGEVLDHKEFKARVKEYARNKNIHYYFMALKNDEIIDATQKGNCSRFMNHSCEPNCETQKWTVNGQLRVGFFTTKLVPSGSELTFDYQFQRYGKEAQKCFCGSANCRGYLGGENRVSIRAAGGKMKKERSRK

| SMILES | pIC50 ([1]; Homo sapiens) | pIC50 [2] | pIC50 [1] |
| --- | --- | --- | --- |
| Cc1ccc(F)c2cc(C(=O)N[C@@H]3CCC[C@@H](N4CCC5(CC4)CNC(=O)N5)C3)[nH]c12 [compound 941] | < 5.70 | 5.89 | – |
| CC(=O)N1CCN([C@@H]2CCC[C@@H](NC(=O)c3cc4c(F)ccc(C)c4[nH]3)C2)C[C@@H]1C(F)(F)F [compound 1071] | < 5.70 | 5.28 | – |
| Cc1ccc(F)c2cc(C(=O)Nc3cc(Cl)cc([C@H]4CC[C@@H](N(C)C)CC4)c3)[nH]c12 [compound 106] | – | 8.52 | 6.70 |
| Cc1ccc(F)c2cc(C(=O)Nc3cccc(N4CCN(C)C4=O)c3)[nH]c12 [compound 191] | 6.40 | 7.52 | – |
| Cc1ccc(F)c2cc(C(=O)Nc3cccc(N4CCC5(CCN(CC(F)F)CC5)C4)c3)[nH]c12 [compound 259] | 6.22 | 7.00 | – |
| Cc1nc([C@@H]2CCC[C@H](NC(=O)c3cc4c(F)ccc(C)c4[nH]3)C2)no1 [compound 1065] | < 5.70 | 5.04 | – |
| Cc1ccc(F)c2cc(C(=O)Nc3cccc(N4CCC5(CC4)COCCN5)c3)[nH]c12 [compound 95] | 6.70 | 7.70 | – |
| Cc1ccc(F)c2cc(C(=O)Nc3cccc(C4CCN(C)C(=O)C4)c3)[nH]c12 (stereo not drawn) [compound 160] | 6.52 | 7.05 | – |
| Cc1cccnc1C(CCC(=O)N1CCOCC1)NC(=O)c1cc2c(F)ccc(C)c2[nH]1 (stereo not drawn) [compound 334] | 5.80 | 6.15 | – |
| Cc1ccc(F)c2cc(C(=O)Nc3cccc(N4CCC(Nc5cccnc5)CC4)c3)[nH]c12 [compound 157] | 6.52 | 7.30 | – |
| Cc1ccc(F)c2cc(C(=O)Nc3cc(Cl)cc(N4CCC(CCCN5CCOCC5)CC4)c3)[nH]c12 [compound 188] | 6.40 | 7.70 | – |
| Cc1ccc(F)c2cc(C(=O)N[C@@H]3CCC[C@H](N4CCN(C(=O)C(C)C)C(C(F)(F)F)C4)C3)[nH]c12 (stereo partly drawn) [compound 1112] | 7.70 | 7.70 | – |
| Cc1cccnc1C(Cc1ccc(CN2CCOCC2)cc1)NC(=O)c1cc2c(F)ccc(C)c2[nH]1 (stereo not drawn) [compound 358] | – | 6.05 | < 5.70 |
| Cc1cc(Cn2ccnc2)cnc1C(NC(=O)c1cc2cccc(C)c2[nH]1)C1CC1 (stereo not drawn) [compound 309] | 5.89 | 6.70 | – |
| Cc1ccc(F)c2cc(C(=O)NC(C(=O)N(C)C)c3ccccn3)[nH]c12 (stereo not drawn) [compound 491] | – | 4.92 | 4.91 |
| Cc1cccc2cc(C(=O)NC3CCOCC3)[nH]c12 [compound 505] | – | 4.95 | 4.83 |
| Cc1ccc(F)c2cc(C(=O)Nc3cccc(N4CCCC4=O)c3)[nH]c12 [compound 118] | 6.70 | 7.30 | – |
| Cc1cccc2cc(C(=O)NCC3CCCCC3N3CCOCC3)[nH]c12 (stereo not drawn) [compound 508] | – | 4.98 | 4.82 |
| Cc1ccc(F)c2cc(C(=O)N[C@@H]3CCC[C@H](N4CCn5c(cn(C)c5=O)C4)C3)[nH]c12 [compound 1057] | 7.00 | 7.40 | – |
| Cc1ccc(F)c2cc(C(=O)N[C@H]3CCC[C@@H](c4cncnc4)C3)[nH]c12 [compound 131] | 6.52 | 7.00 | – |
| Cc1ccc(F)c2cc(C(=O)Nc3cccc(C4CCN(C(=O)CN(C)C)C4)c3)[nH]c12 (stereo not drawn) [compound 226] | – | 7.22 | 6.30 |
| Cc1ccc(F)c2cc(C(=O)Nc3cccc(-c4cnn(CCO)c4)c3)[nH]c12 [compound 219] | – | 7.22 | 6.30 |
| Cc1nnc(C2CCCC(NC(=O)c3cc4c(F)ccc(C)c4[nH]3)C2)o1 (stereo not drawn) [compound 976] | – | 5.18 | < 5.70 |
| Cc1ccc(F)c2cc(C(=O)N[C@H]3CCCN(C4CCN(C(=O)CN(C)C)CC4)C3)[nH]c12 [compound 892] | < 5.70 | < 5.00 | – |
| COCC1(N(C)C)CCN(c2cccc(NC(=O)c3cc4c(F)ccc(C)c4[nH]3)c2)CC1 [compound 253] | – | 7.30 | 6.22 |
| CC(=O)N1CCC2(CC1)CCN(c1cc(F)cc(NC(=O)c3cc4c(F)ccc(C)c4[nH]3)c1)C2 [compound 5] | – | 8.10 | 7.40 |
| CC(=O)N1CCN(C2CCN(c3cc(F)cc(NC(=O)c4cc5c(F)ccc(C)c5[nH]4)c3)C2)CC1 (stereo not drawn) [compound 9] | – | 8.10 | 7.40 |
